# What was measured:
# [1] = target: T1, signal transducer and activator of transcription 3 (STAT3) (Homo sapiens, UniProt P40763); test: microscale thermophoresis with labeled purified His-STAT3 […]-722 (reference inhibitor); assay type: binding
# T1 construct: His-STAT3 127-722
# [2] = target: T1, signal transducer and activator of transcription 3 (STAT3); test: microscale thermophoresis with labeled purified His-STAT3 […]-722; assay type: binding
# T1 sequence (P40763 127-722): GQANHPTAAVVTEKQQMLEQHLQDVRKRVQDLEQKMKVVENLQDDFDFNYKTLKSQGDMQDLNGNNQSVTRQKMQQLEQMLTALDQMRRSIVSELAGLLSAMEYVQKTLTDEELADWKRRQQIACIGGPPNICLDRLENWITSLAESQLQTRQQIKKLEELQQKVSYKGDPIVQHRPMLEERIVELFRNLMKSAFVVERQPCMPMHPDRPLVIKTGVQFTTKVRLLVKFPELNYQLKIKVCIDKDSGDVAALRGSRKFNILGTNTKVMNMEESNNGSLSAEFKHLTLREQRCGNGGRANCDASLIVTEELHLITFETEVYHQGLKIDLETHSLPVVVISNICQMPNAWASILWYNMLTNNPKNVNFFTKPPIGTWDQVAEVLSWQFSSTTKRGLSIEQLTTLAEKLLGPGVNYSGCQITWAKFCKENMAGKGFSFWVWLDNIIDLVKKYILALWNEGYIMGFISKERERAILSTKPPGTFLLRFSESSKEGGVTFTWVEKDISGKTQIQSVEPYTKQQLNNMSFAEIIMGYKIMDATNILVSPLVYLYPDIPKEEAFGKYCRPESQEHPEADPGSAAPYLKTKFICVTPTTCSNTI
Compound,Kd [1] [µM],Kd [2] [µM]
O=[N+]([O-])c1ccc2c(c1)S(=O)(=O)C=C2 [Stattic],6.51 ± 0.82,–
WB737,–,0.00134 ± 0.00019

# — paper PMC10274570, “Preclinical characterization of WB737, a potent and selective STAT3 inhibitor, in natural killer/T‐cell lymphoma” (MedComm, 2023)
